Consider 15 compounds from patent publication US20260184725A1, “CYCLIC 2-AMINOPYRIMIDINE COMPOUND AND PHARMACEUTICAL COMPOSITION AND USE THEREOF” (SHANGHAI INSTITUTE OF ORGANIC CHEMISTRY, CHINESE ACADEMY OF …, priority 2023, published 2026).

What all share (assay type): biochemical
One assay deals with T1, EGFR^WT (Homo sapiens, UniProt P00533).
T1 construct: purchased Eurofins
Kind of assay: ELISA kinase activity inhibition, wild-type EGFR. Particulars: ATP 5 μM, read-out: The average IC50 value (nM) for inhibiting the activity of different tyrosine kinases, EGFR^WT. As to the method:
(§1) EGFR (WT) is a wild-type epidermal growth factor receptor.
(§2) Enzyme-Linked Immunosorbent Assay (ELISA) was used to detect the inhibitory effect of compounds on kinase activity.
(§3) The main experimental steps were as follows: Enzyme reaction substrate Poly (Glu, Tyr)4:1 was diluted with potassium free PBS (10 mM sodium phosphate buffer, 150 mM NaCl, pH 7.2-7.4) to 20 μg/mL, and reacted at 37° C. for 12 hours to 16 hours to coat the enzyme-linked immunosorbent assay plate. ATP solution (final concentration 5 μM) diluted with reaction buffer (50 mM HEPES pH 7.4, 50 mM MgCl2, 0.5 mM MnCl2, 0.2 mM Na3VO4, 1 mM DTT) was added to each well, followed by the test compound or solvent control, then the kinase reaction was initiated and the plate was shaken at 37° C. for 1 hour. The plate was washed three times with T-PBS, then added antibody PY99. The plate was shaken at 37° C. for 0.5 hours. After washing the plate with T-PBS, added horseradish peroxidase-labeled IgG and shaken at 37° C. for 0.5 hours. After washing the plate again, added 2 mg/mL of OPD colorimetric solution and incubated at 25° C. in the dark for 1 minutes to 10 minutes. […] The IC50 values were obtained from the inhibition curve analysis.
(An ELISA detects its analyte on a solid surface through an enzyme-linked reagent.)

The target in the next assay is T2, EGFR^19del/T790M/C797S (Homo sapiens, UniProt P00533, T790M/C797S, form not given).
T2 construct: fused on or other part: Probably a GST tag on the cytoplasmic fragment, as in the vendor's product
The assay can be described thus: ELISA kinase activity inhibition, EGFR 19del/T790M/C797S. To be noted: ATP 5 μM, read-out: The average IC50 value (nM) for inhibiting the activity of different tyrosine kinases, EGFR^19del/T790M/C797S. As to the method: as §1, §2, §3

The target in the next assay is EGFR^L858R/T790M/C797S (Homo sapiens, UniProt P00533, C797S/L858R/T790M). Kind of assay: ELISA kinase activity inhibition, EGFR L858R/T790M/C797S. To be noted: ATP 5 μM, read-out: The average IC50 value (nM) for inhibiting the activity of different tyrosine kinases, EGFR^L858R/T790M/C797S. As to the method:
as §2, §3

Some results are limits rather than exact numbers.

T2 sequence (P00533 with tags, fused parts or gaps DEL746-750/T790M/C797S, form open): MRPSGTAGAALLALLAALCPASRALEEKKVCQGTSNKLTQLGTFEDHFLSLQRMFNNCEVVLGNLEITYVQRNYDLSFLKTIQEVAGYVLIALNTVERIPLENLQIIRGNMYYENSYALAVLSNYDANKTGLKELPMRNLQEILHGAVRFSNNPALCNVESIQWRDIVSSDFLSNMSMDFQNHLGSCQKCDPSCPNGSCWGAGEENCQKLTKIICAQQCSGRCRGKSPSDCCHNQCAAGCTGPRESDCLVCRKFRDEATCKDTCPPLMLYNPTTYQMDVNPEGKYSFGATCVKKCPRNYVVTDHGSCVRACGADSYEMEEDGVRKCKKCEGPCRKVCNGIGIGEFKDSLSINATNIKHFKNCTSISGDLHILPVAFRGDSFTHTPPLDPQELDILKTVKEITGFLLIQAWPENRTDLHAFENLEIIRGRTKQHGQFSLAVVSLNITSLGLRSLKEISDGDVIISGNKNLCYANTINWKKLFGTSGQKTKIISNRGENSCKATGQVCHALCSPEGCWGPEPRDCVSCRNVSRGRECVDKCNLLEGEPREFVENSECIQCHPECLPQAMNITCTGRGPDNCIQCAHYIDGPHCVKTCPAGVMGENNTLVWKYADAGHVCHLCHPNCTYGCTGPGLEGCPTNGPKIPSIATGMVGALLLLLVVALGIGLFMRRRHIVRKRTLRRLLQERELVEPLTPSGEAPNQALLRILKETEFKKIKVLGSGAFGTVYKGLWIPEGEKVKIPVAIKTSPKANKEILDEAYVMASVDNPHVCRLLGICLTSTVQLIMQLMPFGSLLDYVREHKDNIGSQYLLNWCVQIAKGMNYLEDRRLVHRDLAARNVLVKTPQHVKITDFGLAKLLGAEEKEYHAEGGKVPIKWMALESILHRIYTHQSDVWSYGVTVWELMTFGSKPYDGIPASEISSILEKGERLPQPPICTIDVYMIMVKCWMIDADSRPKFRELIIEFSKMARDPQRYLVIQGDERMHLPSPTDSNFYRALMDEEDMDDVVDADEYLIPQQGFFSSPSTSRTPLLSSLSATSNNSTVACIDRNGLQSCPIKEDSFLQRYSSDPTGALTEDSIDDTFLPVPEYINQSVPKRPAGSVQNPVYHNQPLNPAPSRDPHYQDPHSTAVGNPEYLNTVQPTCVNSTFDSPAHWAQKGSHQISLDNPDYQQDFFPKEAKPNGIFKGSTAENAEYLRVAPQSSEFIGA
EGFR^L858R/T790M/C797S, sequence (P00533 25-1210 T790M/C797S/L858R): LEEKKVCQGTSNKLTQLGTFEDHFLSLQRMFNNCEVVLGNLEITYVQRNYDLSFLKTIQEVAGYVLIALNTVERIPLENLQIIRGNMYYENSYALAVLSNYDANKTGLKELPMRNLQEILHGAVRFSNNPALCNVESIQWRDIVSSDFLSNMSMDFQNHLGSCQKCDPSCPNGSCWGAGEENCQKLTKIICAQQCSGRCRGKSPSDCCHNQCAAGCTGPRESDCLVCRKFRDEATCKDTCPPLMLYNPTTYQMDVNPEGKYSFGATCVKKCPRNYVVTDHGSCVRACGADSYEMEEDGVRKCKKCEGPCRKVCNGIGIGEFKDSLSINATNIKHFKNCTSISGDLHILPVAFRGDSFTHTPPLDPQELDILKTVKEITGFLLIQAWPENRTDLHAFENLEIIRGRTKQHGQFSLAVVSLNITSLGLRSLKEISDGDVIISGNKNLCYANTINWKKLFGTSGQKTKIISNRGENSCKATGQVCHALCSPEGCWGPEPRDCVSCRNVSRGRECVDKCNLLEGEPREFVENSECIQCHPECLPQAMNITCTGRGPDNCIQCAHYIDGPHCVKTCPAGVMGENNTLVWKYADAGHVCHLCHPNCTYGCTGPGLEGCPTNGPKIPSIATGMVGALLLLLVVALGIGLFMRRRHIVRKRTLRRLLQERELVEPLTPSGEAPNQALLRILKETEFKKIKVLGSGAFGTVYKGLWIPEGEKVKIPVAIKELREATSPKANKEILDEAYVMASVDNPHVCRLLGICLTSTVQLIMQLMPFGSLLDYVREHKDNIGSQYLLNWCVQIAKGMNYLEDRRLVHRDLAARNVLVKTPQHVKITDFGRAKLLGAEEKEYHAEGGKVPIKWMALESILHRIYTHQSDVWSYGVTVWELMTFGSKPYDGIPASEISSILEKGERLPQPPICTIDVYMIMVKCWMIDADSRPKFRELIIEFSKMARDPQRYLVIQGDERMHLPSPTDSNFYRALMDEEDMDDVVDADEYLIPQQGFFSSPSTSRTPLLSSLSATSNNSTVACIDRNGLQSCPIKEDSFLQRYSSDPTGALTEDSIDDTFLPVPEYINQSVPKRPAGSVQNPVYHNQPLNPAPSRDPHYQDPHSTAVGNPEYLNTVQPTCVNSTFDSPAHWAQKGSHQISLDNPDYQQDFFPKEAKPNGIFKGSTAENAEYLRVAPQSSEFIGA
T1 sequence (P00533 25-1210): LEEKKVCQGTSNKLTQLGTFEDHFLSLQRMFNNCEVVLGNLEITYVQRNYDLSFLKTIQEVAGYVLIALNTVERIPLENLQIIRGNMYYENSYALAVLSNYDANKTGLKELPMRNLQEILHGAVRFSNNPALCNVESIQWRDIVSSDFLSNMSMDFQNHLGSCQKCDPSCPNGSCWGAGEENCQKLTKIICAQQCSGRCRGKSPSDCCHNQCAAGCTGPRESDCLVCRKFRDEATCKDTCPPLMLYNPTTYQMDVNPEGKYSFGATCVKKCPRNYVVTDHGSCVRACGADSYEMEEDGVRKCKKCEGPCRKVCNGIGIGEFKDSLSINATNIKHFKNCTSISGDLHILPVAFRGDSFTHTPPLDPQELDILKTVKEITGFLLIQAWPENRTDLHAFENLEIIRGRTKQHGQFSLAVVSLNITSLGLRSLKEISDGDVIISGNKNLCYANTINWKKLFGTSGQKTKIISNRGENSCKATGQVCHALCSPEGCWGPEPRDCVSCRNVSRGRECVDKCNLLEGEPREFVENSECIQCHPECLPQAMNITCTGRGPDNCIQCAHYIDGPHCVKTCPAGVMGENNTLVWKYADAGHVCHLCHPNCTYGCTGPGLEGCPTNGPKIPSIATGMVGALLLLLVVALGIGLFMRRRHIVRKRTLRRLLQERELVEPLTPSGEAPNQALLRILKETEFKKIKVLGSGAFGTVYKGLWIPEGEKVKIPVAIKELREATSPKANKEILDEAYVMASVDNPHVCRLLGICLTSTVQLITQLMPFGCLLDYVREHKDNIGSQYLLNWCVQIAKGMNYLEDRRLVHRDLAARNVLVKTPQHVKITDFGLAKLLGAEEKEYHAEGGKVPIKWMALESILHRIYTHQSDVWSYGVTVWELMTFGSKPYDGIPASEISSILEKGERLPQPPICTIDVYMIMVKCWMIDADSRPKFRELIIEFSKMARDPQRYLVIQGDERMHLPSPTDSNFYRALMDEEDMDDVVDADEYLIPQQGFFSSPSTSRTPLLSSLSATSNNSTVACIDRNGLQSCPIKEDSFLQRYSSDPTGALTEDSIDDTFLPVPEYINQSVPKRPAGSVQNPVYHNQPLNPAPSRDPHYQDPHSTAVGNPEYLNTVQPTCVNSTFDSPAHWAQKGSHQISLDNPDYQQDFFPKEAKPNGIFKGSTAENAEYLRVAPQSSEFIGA

Consider `CCS(=O)(=O)n1cc2c3ccc(cc31)OCCCn1cc(cn1)-c1cc(c(C)cc1N1CCOCC1)Nc1ncc(Cl)c-2n1` [HC916, 2^5-chloro-1^1-ethylsulfonyl-4^6-methyl-4^4-morpholino-1^1H,5^1H-9-oxa-3-aza-1(3,6)-indole-2(4,2)-pyrimidin-5(4,1)-pyrazol-4(1,3)-benzenacyclononaphane], for which the IC50 was over 1000 nM on EGFR^WT, 129 nM on EGFR^19del/T790M/C797S and 167 nM at EGFR^L858R/T790M/C797S.

For the compound `Cc1cc(N2CCOCC2)c2cc1Nc1ncc(Cl)c(n1)-c1cn(C)c3cc(ccc13)OCCCn1cc-2cn1` [HC8991, 2^5-Chloro-1^1,4^6-dimethyl-4^4-morpholino-1^1H,5^1H-9-oxa-3-aza-1(3,6)-Indole-2(4,2)-Pyrimidin-5(4,1)-Pyrazolol-4(1,3)-benzenacyclononaphane], the results for the IC50 at EGFR^WT and on EGFR^19del/T790M/C797S were over 1000 nM and 6.8 nM, respectively.

Regarding `CCS(=O)(=O)n1cc2c3ccc(cc31)OCCCn1cc(cn1)-c1cc(cc(C3CCCC3)c1N1CCOCC1)Nc1ncc(Cl)c-2n1` [HC9001, 2^5-chloro-4^5-cyclopentyl-1^1-ethylsulfonyl-4^4-morpholino-1^1H,5^1H-9-oxa-3-aza-1(3,6)-indole-2(4,2)-pyrimidin-5(4,1)-pyrazol-4(1,3)-benzenacyclononaphane], the IC50 was over 1000 nM on EGFR^WT, 82.3 nM on EGFR^19del/T790M/C797S and 183 nM at EGFR^L858R/T790M/C797S.

In the case of `C=C(C)c1cc2cc(c1N1CCOCC1)-c1cnn(c1)CCCOc1ccc3c(cn(S(=O)(=O)CC)c3c1)-c1nc(ncc1Cl)N2` [HC9002, 2^5-Chloro-1^1-ethylsulfonyl-4^4-morpholino-4^5-propenyl-1^1H,5^1H-9-oxa-3-aza-1(3,6)-indole-2(4,2)-pyrimidine-5(4,1)-pyrazole-4(1,3)-benzenacyclononaphane], the IC50 on EGFR^WT is over 1000 nM; at EGFR^19del/T790M/C797S it was 24.7 nM; at EGFR^L858R/T790M/C797S, 59 nM.

Turning to `CCS(=O)(=O)n1cc2c3ccc(cc31)OCCCn1cc(cn1)-c1cc(cc(C=C(C)C)c1N1CCOCC1)Nc1ncc(Cl)c-2n1` [HC9003, 2^5-Chloro-1^1-ethylsulfonyl-4^4-morpholino-4^5-2-methylpropan-1-en-1-yl-1^1H,5^1H-9-oxa-3-aza-1(3,6)-indole-2(4,2)-pyrimidine-5(4,1)-pyrazole-4(1,3)-benzenacyclononaphane], the IC50 on EGFR^WT is over 1000 nM; on EGFR^19del/T790M/C797S, 29 nM; at EGFR^L858R/T790M/C797S it was 69.7 nM.

As for `CCS(=O)(=O)n1cc2c3ccc(cc31)OCCCn1cc(cn1)-c1cc(cc(/C=C/C(C)(C)C)c1N1CCOCC1)Nc1ncc(Cl)c-2n1` [HC9004], the IC50 is over 1000 nM at EGFR^WT, 195 nM at EGFR^19del/T790M/C797S and 384 nM at EGFR^L858R/T790M/C797S.

On to `CCS(=O)(=O)n1cc2c3ccc(cc31)OCC(C)Cn1cc(cn1)-c1cc(ccc1N1CCOCC1)Nc1ncc(Cl)c-2n1` (centres unmarked) [HC9281, 2^5-chloro-1^1-ethylsulfonyl-7-methyl-4^4-morpholino-1^1H, 5^1H-9-oxa-3-aza-1(3,6)-indole-2(4,2)-pyrimidine-5(4,1)-pyrazole-4(1,3)-benzenacyclononaphane], for which the IC50 at EGFR^WT is over 1000 nM; on EGFR^19del/T790M/C797S it was 30.5 nM; on EGFR^L858R/T790M/C797S, 30.5 nM.

Regarding `CCS(=O)(=O)n1cc2c3ccc(cc31)OCC1(CC1)Cn1cc(cn1)-c1cc(ccc1N1CCOCC1)Nc1ncc(Cl)c-2n1` [HC9282, (Z)-5′-Chloro-1′(Ethylsulfonyl)-4′-morpholino spiro [Cyclopropane-1,7′-9-oxa-3-aza-1(3,6)-indole-2(4,2)-pyrimidine-5(4,1)-pyrazolol-4(1,3)-benzenacyclononaphane]], the values for the IC50 on EGFR^WT, on EGFR^19del/T790M/C797S and at EGFR^L858R/T790M/C797S were over 1000 nM, 45.8 nM and 45.8 nM, respectively.

Consider `CCS(=O)(=O)n1cc2c3ccc(cc31)OCCCn1cc(cn1)-c1cc(c(OC)cc1N1CCOCC1)Nc1ncc(Cl)c-2n1` [HC9284, 2^5-Chloro-1^1-ethylsulfonyl-4^6-methoxy-4^4-morpholin-1^1H,5^1H-9-oxa-3-aza-1(3,6)-indole-2(4,2)-pyrimidine-5(4,1)-pyrazole-4(1,3)-benzenacyclononaphane], for which the IC50 on EGFR^WT worked out at 154 nM; at EGFR^19del/T790M/C797S, 35.1 nM; at EGFR^L858R/T790M/C797S it was 35.1 nM.

Turning to `CCS(=O)(=O)n1cc2c3ccc(cc31)OCCCn1cc(cn1)-c1cc(c(OC)cc1N1CCN(C)CC1)Nc1nccc-2n1` [HC9592, (Z)-1^1-ethylsulfonyl-4^6-methoxy-4^4-(4-methylpiperazin-1-yl)-1^1H,5^1H-9-oxa-3-aza-1(3,6)-indole-2(4,2)-pyrimidine-5(4,1) pyrazole-4(1,3)-benzenacyclononaphane], the IC50 at EGFR^WT stood at 898 nM; at EGFR^19del/T790M/C797S it was 2.9 nM; on EGFR^L858R/T790M/C797S, 1.4 nM.

Consider `CCS(=O)(=O)n1cc2c3ccc(cc31)OCCCn1cc(cn1)-c1cc(cc(CC(C)C)c1N1CCOCC1)Nc1ncc(Cl)c-2n1` [HC90032, 2^5-chloro-1^1-ethylsulfonyl-4^4-morpholino-4^5-2-methylpropyl-1^1H,5^1H-9-oxa-3-aza-1(3,6)-indole-2(4,2)-pyrimidin-5(4,1)-pyrazol-4(1,3)-benzenacyclononaphane], for which the results for the IC50 at EGFR^WT, on EGFR^19del/T790M/C797S and at EGFR^L858R/T790M/C797S were over 1000 nM, 192 nM and 343 nM, respectively.

In the case of `CCS(=O)(=O)n1cc2c3ccc(cc31)OCCCn1cc(cn1)-c1cc(cc(CCC(C)(C)C)c1N1CCOCC1)Nc1ncc(Cl)c-2n1` [HC90042, 2^5-chloro-4^5-(E)-3,3-dimethylbutyl)-1^1-ethylsulfonyl-4^4-morpholin-1^1H,5^1H-9-oxa-3-aza-1(3,6)-indole-2(4,2)-pyrimidin-5(4,1)-pyrazolol-4 (1,3)-benzenacyclononaphane], the IC50 at EGFR^WT, at EGFR^19del/T790M/C797S and on EGFR^L858R/T790M/C797S was over 1000 nM in each case.

For `CCS(=O)(=O)n1cc2c3ccc(cc31)OCC1(CC1)Cn1cc(cn1)-c1cc(c(OC)cc1N1CCOCC1)Nc1nccc-2n1` [WQX-1-87, (Z)-1′-(ethylsulfonyl)-6′-methoxy-4′-morpholino spiro[cyclopropane-7′-9-oxa-3-aza-1(3,6)-indole-2(4,2)-pyrimidin-5(4,1)-pyrazol-4(1,3)-benzenacyclononaphane]], the IC50 on EGFR^WT was over 1000 nM; at EGFR^19del/T790M/C797S it was 33 nM; at EGFR^L858R/T790M/C797S it was 63.3 nM.

Take `CCS(=O)(=O)n1cc2c3ccc(cc31)OCCCn1cc(cn1)-c1cc(c(OC)cc1CN1CCOCC1)Nc1nccc-2n1` [WQX-2-35, (Z)-1^1-(ethylsulfonyl)-4^6-methoxy-4^4-(morpholinomethyl)-1^1H,5^1H-9-oxa-3-aza-1(3,6)-indole-2(4,2)-pyrimidine-5(4,1)-pyrazole-4(1,3)-benzocyclononane]: the IC50 came out at 141 nM on EGFR^WT, 1 nM on EGFR^19del/T790M/C797S and 14.1 nM at EGFR^L858R/T790M/C797S.

As for `CCS(=O)(=O)n1cc2c3ccc(cc31)OCCCCCCOc1cc(ccc1N1CCOCC1)Nc1ncc(Cl)c-2n1` [reference compound], the IC50 came to 190 nM on EGFR^WT, 9 nM at EGFR^19del/T790M/C797S and 14.4 nM at EGFR^L858R/T790M/C797S.
